Measured values published in patent US10005767B2, “Compositions and methods for inhibition of the JAK pathway” (Rigel Pharmaceuticals, Inc., priority 2009, dated 2018).
Counter-ions that a name gives are not always drawn. Like-named read-outs stand apart in the source and are kept apart here.

System: human primary T-cells, IL-2 stimulated proliferation (JAK-1 and JAK-3 dependent; reported as JAK3 activity)
Assay: Human primary T-cell proliferation stimulated by IL-2 (Example 3)
Format: cell-based
Details: tested under conditions described in Example 3 (IL-2 stimulated human primary T-cell proliferation), read-out: ability to inhibit JAK3 activity, IC50 range (Table V)
In short: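 Peripheral-blood human T-cells pre-activated via TCR/CD28, IL-2-starved overnight, then cultured 72 h at 37 °C with compound in Yssel's medium containing IL-2 (80 U/mL in cell suspension). Proliferation read as viable-cell ATP by CellTiter-Glo luminescence; reduction versus control taken as JAK pathway inhibition.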

Row | Structure (SMILES) | IC50 (Homo sapiens, T-cell) [nM] | IC50 [nM]
1 | Cc1cnc(Nc2cnc(N3CC4CCC(C3)N4C)c(C)c2)nc1Nc1ccc2oc(=O)[nH]c2c1 [II-64, 5-(5-methyl-2-(5-methyl-6-(8-methyl-3,8-diaza-bicyclo[3.2.1]octan-3-yl)pyridin-3-ylamino)pyrimidin-4-ylamino)benzo[d]oxazol-2(3H)-one] | < 500 | 
2 | Cc1cnc(Nc2cccc(C(N)=O)c2)nc1Nc1ccc2oc(=O)[nH]c2c1 [Compound I-2, N4-(benzo[d]oxazol-2(3H)-on-5-yl)-N2-(3-aminocarbonylphenyl)-5-methylpyrimidine-2,4-diamine] | < 500 | 
3 | Cc1cnc(Nc2cccc(OC(F)F)c2)nc1Nc1ccc2oc(=O)[nH]c2c1 [Compound I-312, N2-(3-difluoromethoxy)phenyl-5-methyl-N4-(2-oxo-2,3-dihydro-1,3-benzoxazol-5-yl)-2,4-pyrimidinediamine] |  | < 500
4 | Cc1cnc(Nc2ccc(OC(F)(F)F)cc2)nc1Nc1ccc2oc(=O)[nH]c2c1 [Compound I-108, N4-(benzoxazolin-2-on-5-yl)-N2-(4-trifluoromethoxyphenyl)-5-methylpyrimidine-2,4-diamine trifluoroacetate salt] | < 500 | 
5 | O=c1[nH]c2cc(Nc3nc(Nc4ccc(N5CCOCC5)nc4)ncc3F)ccc2o1 [II-18, N4-(benzo[d]oxazol-2(3H)-on-5-yl)-N2-((2-morpholinyl)pyridin-5-yl)-5-fluoropyrimidine-2,4-diamine] |  | < 500
6 | Cc1cnc(Nc2ccc(C(=O)NC3CC3)c(C(F)(F)F)c2)nc1Nc1ccc2oc(=O)[nH]c2c1 [Compound I-223, N-cyclopropyl-4-(5-methyl-4-(2-oxo-2,3-dihydrobenzo[d]oxazol-5-ylamino)pyrimidin-2-ylamino)-2-(trifluoromethyl)benzamide] | < 500 | 
7 | Cc1cccc(Nc2ncc(C)c(Nc3ccc4oc(=O)[nH]c4c3)n2)n1 [IV-51, 5-(5-methyl-2-(6-methylpyridin-2-ylamino)pyrimidin-4-ylamino)benzo[d]oxazol-2(3H)-one] | 500 to 5000 | 
8 | Cc1cnc(Nc2ccc(C(=O)O)cc2)nc1Nc1ccc2oc(=O)[nH]c2c1 [Compound I-126, 4-[5-Methyl-4-(2-oxo-2,3-dihydro-benzooxazol-5-ylamino)-pyrimidin-2-ylamino]-benzoic acid] | < 500 | 
9 | Cc1cc(N2CCN(C)CC2)ncc1Nc1ncc(C)c(Nc2ccc3oc(=O)[nH]c3c2)n1 [II-143, N2-[4-methyl-2-(4-methylpiperazino)pyridin-5-yl]-5-methyl-N4-(2-oxo-2,3-dihydro-1,3-benzoxazol-5-yl)-2,4-pyrimidinediamine] | 500 to 5000 | 
10 | Cc1ccc(Nc2ncc(C)c(Nc3ccc4oc(=O)[nH]c4c3)n2)cc1OC(C)(C)C(N)=O [Compound I-392, N2-[3-(1-aminocarbonyl-1-methyl)ethoxy-4-methyl]phenyl-5-methyl-N4-(2-oxo-2,3-dihydro-1,3-benzoxazol-5-yl)-2,4-pyrimidinediamine] |  | < 500
11 | Cc1cnc(Nc2cccc(S(N)(=O)=O)c2)nc1Nc1cc(C)c2oc(=O)[nH]c2c1 [Compound I-243, 3-(5-methyl-4-(7-methyl-2-oxo-2,3-dihydrobenzo[d]oxazol-5-ylamino)pyrimidin-2-ylamino)benzenesulfonamide] | < 500 | 
12 | CNC(=O)c1ccc(Nc2ncc(C)c(Nc3ccc4oc(=O)[nH]c4c3)n2)cc1 [Compound I-133, N-Methyl-4-[5-methyl-4-(2-oxo-2,3-dihydro-benzooxazol-5-ylamino)-pyrimidin-2-ylamino]-benzamide] | < 500 | 
13 | Cc1cnc(Nc2ccc(N(C)[C@@H]3CCCNC3)nc2)nc1Nc1ccc2oc(=O)[nH]c2c1 [II-108, (R)-5-(5-methyl-2-(6-(methyl(piperidin-3-yl)amino)pyridin-3-ylamino)pyrimidin-4-ylamino)benzo[d]oxazol-2(3H)-one] | < 500 | 
14 | Cc1cnc(Nc2ccc(N3CC[C@H](N(C)C)C3)nc2)nc1Nc1ccc2oc(=O)[nH]c2c1 [II-90, (S)-5-(2-(6-(3-(dimethylamino)pyrrolidin-1-yl)pyridin-3-ylamino)-5-methylpyrimidin-4-ylamino)benzo[d]oxazol-2(3H)-one] | < 500 | 
15 | Cc1cnc(Nc2cc(F)c(C(F)(F)F)c(F)c2)nc1Nc1ccc2oc(=O)[nH]c2c1 [Compound I-415, N2-(3,5-difluoro-4-trifluoromethyl)phenyl-5-methyl-N4-(2-oxo-2,3-dihydro-1,3-benzoxazol-5-yl)-2,4-pyrimidinediamine] |  | < 500
16 | CCNC(=O)N1CCN(c2ccc(Nc3ncc(C)c(Nc4ccc5oc(=O)[nH]c5c4)n3)cc2)CC1 [Compound I-333, N2-[4-(4-ethylaminocarbonyl)piperazino]phenyl-5-methyl-N4-(2-oxo-2,3-dihydro-1,3-benzoxazol-5-yl)-2,4-pyrimidinediamine] |  | < 500

Row | Structure (SMILES) | IC50 (Homo sapiens, T-cell) [nM] | IC50 [nM]
17 | Cc1cnc(Nc2ccc(NC(=O)c3ccccc3)cc2)nc1Nc1ccc2oc(=O)[nH]c2c1 [Compound I-308, 5-methyl-N4-(2-oxo-2,3-dihydro-1,3-benzoxazol-5-yl)-N2-(4-phenylcarbonylamino)phenyl-2,4-pyrimidinediamine] |  | < 500
18 | Cc1cnc(Nc2ccc(N3CCSCC3)c(C#N)c2)nc1Nc1ccc2oc(=O)[nH]c2c1 [Compound I-339, N2-(3-cyano-4-thiomorpholino)phenyl-5-methyl-N4-(2-oxo-2,3-dihydro-1,3-benzoxazol-5-yl)-2,4-pyrimidinediamine] |  | < 500
19 | CC(=O)N1CCN(c2ccc(Nc3ncc(C)c(Nc4ccc5oc(=O)[nH]c5c4)n3)cc2)CC1 [Compound I-343, N2-[4-(4-acetyl)piperazino]phenyl-5-methyl-N4-(2-oxo-2,3-dihydro-1,3-benzoxazol-5-yl)-2,4-pyrimidinediamine] |  | < 500
20 | Cc1cnc(Nc2ccc(N3CCC(NC(=O)NCc4ccccc4)C3)nc2)nc1Nc1ccc2oc(=O)[nH]c2c1 (centres unmarked) [II-98, 1-benzyl-3-(1-(5-(5-methyl-4-(2-oxo-2,3-dihydrobenzo[d]oxazol-5-ylamino)pyrimidin-2-ylamino)pyridin-2-yl)pyrrolidin-3-yl)urea] | < 500 | 
21 | COc1cc(C)cc(Nc2ncc(C)c(Nc3cc(C)c4oc(=O)n(COP(=O)(O)O)c4c3)n2)c1 [Compound I-536, Sodium (5-(2-(3-methoxy-5-methylphenylamino)-5-methylpyrimidin-4-ylamino)-7-methyl-2-oxobenzo[d]oxazol-3 (2H)-yl)methyl phosphate] | 5000 to 10000 | 
22 | Cc1cnc(Nc2ccc(NS(C)(=O)=O)cc2)nc1Nc1ccc2c(c1)oc(=O)n2C [Compound I-74, N2-((4-methylsulfonylamino)phenyl)-N4-(3-methyl-2-oxo-2,3-dihydrobenzo[d]oxazol-6-yl)-5-methylpyrimidine-2,4-diamine] |  | < 500
23 | Cc1cnc(Nc2cnc(C3CC4CCC(C3)N4)c(C)c2)nc1Nc1ccc2oc(=O)[nH]c2c1 (centres unmarked) [II-66, 5-(2-(6-(8-aza-bicyclo[3.2.1]octan-3-yl)-5-methylpyridin-3-ylamino)-5-methylpyrimidin-4-ylamino)benzo[d]oxazol-2(3H)-one] | 500 to 5000 | 
24 | COc1ccc(Nc2ncc(C)c(Nc3ccc4oc(=O)[nH]c4c3)n2)cc1-c1cccnc1 [Compound I-487, 5-(2-(4-methoxy-3-(pyridin-3-yl)phenylamino)-5-methylpyrimidin-4-ylamino)benzo[d]oxazol-2(3H)-one formate salt] | < 500 | 
25 | Cc1cnc(Nc2ccc(N3CCNCC3)nc2)nc1Nc1ccc2oc(=O)[nH]c2c1 [II-10, N4-(benzo[d]oxazol-2(3H)-on-5-yl)-N2-(6-(piperazin-1-yl)pyridin-3-yl)-5-methylpyrimidine-2,4-diamine] | < 500 | 
26 | Cc1cnc(Nc2cccc(NS(C)(=O)=O)c2)nc1Nc1ccc2c(c1)n(C)c(=O)n2C [Compound I-37, N4-(1,3-dimethylbenzimidazolin-2-on-5-yl)-N2-((3-methylsulfonylamino)phenyl)-5-methylpyrimidine-2,4-diamine] |  | < 500
27 | Cn1c(=O)n(C)c2cc(Nc3nc(Nc4ccc(NS(C)(=O)=O)cc4)ncc3F)ccc21 [Compound I-43, N4-(1,3-dimethylbenzimidazolin-2-on-5-yl)-N2-((4-methylsulfonylamino)phenyl)-5-fluoropyrimidine-2,4-diamine] |  | 500 to 5000
28 | Cc1ccc(Nc2ncc(C)c(Nc3ccc4oc(=O)[nH]c4c3)n2)cc1S(N)(=O)=O [Compound I-24, N4-(benzo[d]oxazol-2(3H)-on-5-yl)-N2-((3-aminosulfonyl-4-methyl)phenyl)-5-methylpyrimidine-2,4-diamine] |  | < 500
29 | Cc1cnc(Nc2cccc(C(F)(F)F)c2C)nc1Nc1ccc2oc(=O)[nH]c2c1 [Compound I-518, 5-[5-Methyl-2-(2-methyl-3-trifluoromethyl-phenylamino)-pyrimidin-4-ylamino]-3H-benzooxazol-2-one] | < 500 | 
30 | Cc1cnc(Nc2cnc(N3CCN(C)CC3)c(C(F)(F)F)c2)nc1Nc1ccc2oc(=O)[nH]c2c1 [II-39, N4-(benzo[d]oxazolin-2(3H)-on-5-yl)-N2-[3-trifluoromethyl-2-(4-methylpiperazin-1-yl)pyridin-5-yl]-5-methylpyrimidine-2,4-diamine] | < 500 | 
31 | Cn1c(=O)oc2cc(Nc3nc(Nc4ccc(NS(C)(=O)=O)cc4)ncc3F)ccc21 [Compound I-62, N2-((4-methylsulfonylamino)phenyl)-N4-(3-methyl-2-oxo-2,3-dihydrobenzo[d]oxazol-6-yl)-5-fluoropyrimidine-2,4-diamine] |  | 500 to 5000
32 | Cn1c(=O)n(C)c2cc(Nc3nc(Nc4ccc(S(N)(=O)=O)cc4)ncc3F)ccc21 [Compound I-40, N4-(1,3-dimethylbenzimidazolin-2-on-5-yl)-N2-((4-aminosulfonyl)phenyl)-5-fluoropyrimidine-2,4-diamine] |  | > 10000
